Counter-ions that a name gives are not always drawn. Like-named read-outs stand apart in the source and are kept apart here.
Columns and labels:
[1] = target: T1, human 5HT7 receptor (Homo sapiens, UniProt P34969); test: 5-HT7 Receptor Binding Assay ([3H]LSD displacement, CHO cell membranes)
T1 construct: purchased BioSignal Drug Discovery Technology, Montreal, Canada; host or cells: CHO cells (stably transfected), membranes
T1 sequence (P34969 whole entry): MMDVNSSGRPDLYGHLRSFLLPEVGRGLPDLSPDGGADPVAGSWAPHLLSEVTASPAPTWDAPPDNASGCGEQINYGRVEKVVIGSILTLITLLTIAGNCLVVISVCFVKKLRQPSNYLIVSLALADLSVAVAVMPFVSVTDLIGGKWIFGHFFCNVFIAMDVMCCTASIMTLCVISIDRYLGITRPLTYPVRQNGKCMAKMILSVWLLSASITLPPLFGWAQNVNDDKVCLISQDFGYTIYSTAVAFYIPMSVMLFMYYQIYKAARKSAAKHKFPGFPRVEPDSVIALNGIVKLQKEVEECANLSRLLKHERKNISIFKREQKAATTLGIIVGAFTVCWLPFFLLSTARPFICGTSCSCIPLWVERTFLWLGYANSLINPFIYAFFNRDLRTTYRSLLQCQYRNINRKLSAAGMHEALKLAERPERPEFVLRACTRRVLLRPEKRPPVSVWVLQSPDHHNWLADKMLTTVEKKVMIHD

Compound	melting point [°C]	also measured
NCCc1c[nH]c2cc3c(cc12)C(=O)N(Cc1ccccc1)CC3 (as salt: HCl) (hydrate or solvate)	262 to 263	
NCCc1c[nH]c2cc3c(cc12)C(=O)NCC3 (as salt: salt) (hydrate or solvate) [Compound 1, 3-(2-Amino-ethyl)-1,6,7,8-tetrahydro-pyrrolo[2,3-g]isoquinolin-5-one]	82 to 86	
NCCc1c[nH]c2cc3c(cc12)C(=O)NCC3 [Compound 1, 3-(2-Amino-ethyl)-1,6,7,8-tetrahydro-pyrrolo[2,3-g]isoquinolin-5-one]		Ki [1]: 14 nM
CN1CCN(C2=Nc3ccccc3Oc3ccc(Cl)cc32)CC1 [Loxapine, reference compound]		Ki ([1]; displacement of [3H]LSD, cloned human 5-HT7 receptor membranes from CHO cells, value with 95% confidence interval, read-out: 5-HT7 binding Ki): 43 nM

— patent US6432974B1, “Pyrrolo-isoquinoline and tetra-hydropyrrolo-isoquinoline derivatives and their use as mediators of the 5-HT7 receptor” (Wyeth, priority 2000, dated 2002)
